Read-outs that look alike come from different tables or passages of the source.
Tests used:
[1] = cited from earlier work
[2] = Deglosser test: adhesion of latex enamel to wiped alkyd enamel (Example 6); details: after wiping off cooking oil with saturated paper towel, painting and drying
Method: The mixture of Example 5 and straight diacetone alcohol were tested as deglossers, wherein an alkyd surface was covered with cooking oil. Then a paper towel saturated with the liquid was used to wipe off both the oil and the surface sheen of the alkyd enamel. This was followed by painting with latex enamel. […] Said commercially available deglossers contained such chemicals as methylene chloride, alcohols, and petroleum distillates.

[3] = Minutes to complete bubbling / softening of finishes (Example 5)
Method: A 50 mole percent mixture of diacetone alcohol as the first chemical and Panasol AN-1 as the second chemical was compared against pure diacetone alcohol on a variety of surfaces.
Latex enamel was also tested.

[4] = Paint stripping, xylene and diacetone alcohol mixture (Example 7)
From the text: A 50 mole percent mixture of xylene and diacetone alcohol was compared against the pure components on a number of substrates for use as paint strippers. […] On an alkyd sash and trim paint the xylene was ineffective.

[5] = 75° F.; cited from earlier work
[6] = Paint removal comparison of NMP/Panasol AN-1 mixtures with the pure components (Example 1)
Method: Various mixtures of Panasol AN-1 and NMP were compared against the paint removal efficiency of the pure components. The following surfaces were tested: alkyd enamel, polyurethane varnish, two-part epoxy enamel, polyurethane marine enamel, latex enamel, and a surface with seven layers of aged alkyd enamels.
The straight line drawn at a 45° angle represents the expected effectiveness, based on the state of the art with an averaging of the properties of the pure components (R. S. Downing, ibid.).

[7] = Paint removal, NMP and benzyl alcohol (Example 9); details: alone
From the text: However, its mixture with NMP had substantially less effectiveness than either pure component.

[8] = Paint removal, N-vinyl 2-pyrrolidone mixtures and pyrrolidone 2 (Example 4); details: variety of surfaces, as in Example 1
Method: N-vinyl 2-pyrrolidone was substituted for NMP in the mixtures prepared in Example 1. They were tested as a paint remover on a variety of surfaces, also as in Example 1.

For `CC(C)=O` [Acetone], the “toxicity / health effects in words” value ([1]; background literature) is listed as “low toxicity”.
With `CC(=O)CC(C)(C)O` [Diacetone Alcohol, diacetone alcohol] the “adhesion of the latex enamel to the alkyd enamel” value [2] was “excellent”, the “Minutes to Complete Bubbling” value ([3]; Acrylic enamel) was 32 min and the “Minutes to Complete Bubbling” value ([3]; Alkyd enamel) was 40 min. The time to softening ([3]; Latex enamel (does not bubble)) was 4 min, the “Minutes to Complete Bubbling” value ([3]; Polyurethane varnish) was 36 min and the softening and bubbling ([3]; alkyd and epoxy surfaces) was “would soften alkyd and epoxy surfaces, permitting scraping but would not bubble them in a reasonable time”. The “Minutes to Complete Bubbling” value ([3]; polyurethane enamel) was 17 min, the paint stripping effectiveness ([4]; alkyd sash and trim paint) was “effective but very slow” and the paint stripping effectiveness ([4]; brushing lacquer) was “equally effective”.
In the case of `CO` [Methanol], the elimination ([1]; Sax, Dangerous Properties of Industrial Materials) is given as “slowness with which it is eliminated”, the “toxicity / health effects in words” value ([1]; background literature) is given as “prolongs the period of cardiovascular stress caused by the methylene chloride” and the “toxicity / health effects in words” value ([1]; background literature, listed as methanol) is given as “Severe exposures may cause dizziness, unconsciousness, sighing respiration, cardiac depression and eventually death”.
For `ClCCl` [Methylene chloride], the metabolism ([1]; background literature) is given as “metabolized to carbon monoxide” and the vapor pressure [5] is given as 400 mm Hg.
With `CN1CCCC1=O` [NMP, n-methyl 2 pyrrolidone] the removal time ([6]; epoxy) was “ten”, the paint removal effectiveness ([6]; old lead based paint) was “equally effective” and the paint removal effectiveness ([6]; one surface with a modern coating) was “would not succumb to NMP”. For the same compound, the removal time ([6]; polyurethane enamel) was 5 min.
In the case of `c1ccccc1` [benzene], the “toxicity / health effects in words” value ([1]; background literature) is given as “induces severe chronic toxic effects, causing anemia and damaging the bone marrow”.
For `OCc1ccccc1` [benzyl alcohol], the paint removal ability [7] was “some ability to soften paint and remove it”.
With `O=C1CCCN1` [pyrrolidone 2] the paint removal effectiveness [8] was “ineffective as a paint remover”.
For xylene, the paint stripping effectiveness ([4]; alkyd sash and trim paint) was “ineffective”, the paint stripping effectiveness ([4]; brushing lacquer) was “ineffective” and the paint stripping effectiveness ([4]; latex flat paint) was “very slow acting”.

From patent US4120810A, “Paint remover with improved safety characteristics” (priority 1976, dated 1978)
